Source: US20170190671A1, “BIS(ARYL)CATECHOL DERIVATIVES AS HERBICIDES” (E I DU PONT DE NEMOURS AND COMPANY, priority 2014, published 2017)

How the values were obtained:
Type in all cases: in vivo
kochia (Kochia scoparia) [1] = test: Test A preemergence
In short: (§1)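 Compounds in non-phytotoxic solvent with surfactant applied as soil spray preemergence, or postemergence to plants 2-10 cm at one- to two-leaf stage, in loam/sand. After approximately 10 days in greenhouse, injury rated visually versus untreated controls, 0 (no effect) to 100 (complete control).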

[2] = test system: Italian ryegrass (Lolium multiflorum); test: Test A preemergence
In short: as §1

[3] = test system: giant foxtail (Setaria faberii); test: Test A preemergence
In short: as §1

[4] = test system: barnyardgrass (Echinochloa crus-galli); test: Test A preemergence
In short: as §1

[5] = test system: ragweed (common ragweed, Ambrosia elatior); test: Test A preemergence
In short: as §1

[6] = test system: pigweed (Amaranthus retroflexus); test: Test A preemergence
In short: as §1

kochia (Kochia scoparia) [7] = test: Test A postemergence; settings: 0 to 100 scale
In short: as §1

[8] = test system: Italian ryegrass (Lolium multiflorum); test: Test A postemergence; settings: 0 to 100 scale
In short: as §1

[9] = test system: giant foxtail (Setaria faberii); test: Test A postemergence; settings: 0 to 100 scale
In short: as §1

[10] = test system: galium (catchweed bedstraw, Galium aparine); test: Test A postemergence; settings: 0 to 100 scale
In short: as §1

[11] = test system: barnyardgrass (Echinochloa crus-galli); test: Test A postemergence; settings: 0 to 100 scale
In short: as §1

[12] = test system: wheat (Triticum aestivum); test: Test A postemergence; settings: 0 to 100 scale
In short: as §1

[13] = test system: blackgrass (Alopecurus myosuroides); test: Test A postemergence; settings: 0 to 100 scale
In short: as §1

corn (Zea mays) = test: Test A postemergence; settings: 0 to 100 scale
In short: as §1

[14] = test system: ragweed (common ragweed, Ambrosia elatior); test: Test A postemergence; settings: 0 to 100 scale
In short: as §1

[15] = test system: pigweed (Amaranthus retroflexus); test: Test A postemergence; settings: 0 to 100 scale
In short: as §1

[16] = test system: sedge, umbrella (small-flower umbrella sedge, Cyperus difformis); test: Test B flooded paddy; settings: 250 g ai/ha, Flood, 13 to 15 days, scale 0 (no effect) to 100 (complete control)
In short: (§2)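 Test compounds are applied straight into paddy water held 3 cm above the soil surface, with that flood maintained for the whole test. After 13 to 15 days in the greenhouse, each species is scored visually relative to controls.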

[17] = test system: barnyardgrass (Echinochloa crus-galli); test: Test B flooded paddy; settings: 250 g ai/ha, Flood, 13 to 15 days, scale 0 (no effect) to 100 (complete control)
In short: as §2

[18] = test system: ducksalad (Heteranthera limosa); test: Test B flooded paddy; settings: 250 g ai/ha, Flood, 13 to 15 days, scale 0 (no effect) to 100 (complete control)
In short: as §2

rice (Oryza sativa) = test: Test B flooded paddy; settings: 250 g ai/ha, Flood, 13 to 15 days, scale 0 (no effect) to 100 (complete control)
In short: as §2

SMILES: FC(F)(F)c1cnc(Oc2c(Br)cccc2Oc2ncc(Cl)cn2)nc1 [Compound 24]
- Plant response rating, Kochia (kochia (Kochia scoparia) [1]; 1000 g ai/ha, 0 to 100 scale): 90
- Plant response rating, Ryegrass, Italian ([2]; 1000 g ai/ha, 0 to 100 scale): 80
- Plant response rating, Foxtail, Giant ([3]; 1000 g ai/ha, 0 to 100 scale): 100
- Plant response rating, Barnyardgrass ([4]; 1000 g ai/ha, 0 to 100 scale): 100
- Plant response rating, Ragweed ([5]; 1000 g ai/ha, 0 to 100 scale): 70
- Plant response rating, Pigweed ([6]; 1000 g ai/ha, 0 to 100 scale): 100
- Plant response rating, Kochia (kochia (Kochia scoparia) [7]; 1000 g ai/ha): 90
- Plant response rating, Ryegrass, Italian ([8]; 1000 g ai/ha): 80
- Plant response rating, Foxtail, Giant ([9]; 1000 g ai/ha): 90
- Plant response rating, Galium ([10]; 1000 g ai/ha): 90
- Plant response rating, Barnyardgrass ([11]; 1000 g ai/ha, 0 no effect, 100 complete control): 90
- Plant response rating, Wheat ([12]; 1000 g ai/ha): 50
- Plant response rating, Blackgrass ([13]; 1000 g ai/ha): 70
- Plant response rating, Corn (corn (Zea mays); 1000 g ai/ha): 50
- Plant response rating, Ragweed ([14]; 1000 g ai/ha): 60
- Plant response rating, Pigweed ([15]; 1000 g ai/ha): 100
- Plant response rating, Sedge, Umbrella [16]: 100
- Plant response rating, Barnyardgrass [17]: 50
- Plant response rating, Ducksalad [18]: 100
- Plant response rating, Rice (rice (Oryza sativa)): 90

SMILES: FC(F)c1cccc(Oc2ncc(Br)cn2)c1Oc1ncc(Cl)cn1 [Compound 41]
- pest or weed control at 31 g/ha (kochia (Kochia scoparia) [1]; Bassia scoparia, pre-emergence, 240 h, 31 g ai/ha, 0 to 100 scale (0 no effect, 100 complete control), read-out: Kochia plant response rating): 70%
- pest or weed control at 125 g/ha (kochia (Kochia scoparia) [1]; Bassia scoparia, pre-emergence, 240 h, 125 g ai/ha, 0 to 100 scale (0 no effect, 100 complete control), read-out: Kochia plant response rating): 100%
- pest or weed control at 31 g/ha ([2]; Lolium multiflorum, pre-emergence, 240 h, 31 g ai/ha, 0 to 100 scale (0 no effect, 100 complete control), read-out: Ryegrass, Italian plant response rating): 0%
- pest or weed control at 125 g/ha ([2]; Lolium multiflorum, pre-emergence, 240 h, 125 g ai/ha, 0 to 100 scale (0 no effect, 100 complete control), read-out: Ryegrass, Italian plant response rating): 30%
- pest or weed control at 31 g/ha ([3]; Setaria faberi, pre-emergence, 240 h, 31 g ai/ha, 0 to 100 scale (0 no effect, 100 complete control), read-out: Foxtail, Giant plant response rating): 100%
- pest or weed control at 125 g/ha ([3]; Setaria faberi, pre-emergence, 240 h, 125 g ai/ha, 0 to 100 scale (0 no effect, 100 complete control), read-out: Foxtail, Giant plant response rating): 100%
- pest or weed control at 31 g/ha ([4]; Echinochloa crus-galli, pre-emergence, 240 h, 31 g ai/ha, 0 to 100 scale (0 no effect, 100 complete control), read-out: Barnyardgrass plant response rating): 20%
- pest or weed control at 125 g/ha ([4]; Echinochloa crus-galli, pre-emergence, 240 h, 125 g ai/ha, 0 to 100 scale (0 no effect, 100 complete control), read-out: Barnyardgrass plant response rating): 80%
- pest or weed control at 31 g/ha ([5]; Ambrosia artemisiifolia, pre-emergence, 240 h, 31 g ai/ha, 0 to 100 scale (0 no effect, 100 complete control), read-out: Ragweed plant response rating): 0%
- pest or weed control at 125 g/ha ([5]; Ambrosia artemisiifolia, pre-emergence, 240 h, 125 g ai/ha, 0 to 100 scale (0 no effect, 100 complete control), read-out: Ragweed plant response rating): 60%
- pest or weed control at 31 g/ha ([6]; Amaranthus retroflexus, pre-emergence, 240 h, 31 g ai/ha, 0 to 100 scale (0 no effect, 100 complete control), read-out: Pigweed plant response rating): 100%
- pest or weed control at 125 g/ha ([6]; Amaranthus retroflexus, pre-emergence, 240 h, 125 g ai/ha, 0 to 100 scale (0 no effect, 100 complete control), read-out: Pigweed plant response rating): 100%
- pest or weed control at 31 g/ha (kochia (Kochia scoparia) [7]; Bassia scoparia, post-emergence, 240 h, 31 g ai/ha, read-out: Plant response rating, Kochia): 50%
- pest or weed control at 125 g/ha (kochia (Kochia scoparia) [7]; Bassia scoparia, post-emergence, 240 h, 125 g ai/ha, read-out: Plant response rating, Kochia): 90%
- pest or weed control at 31 g/ha ([8]; Lolium multiflorum, post-emergence, 240 h, 31 g ai/ha, read-out: Plant response rating, Ryegrass, Italian): 30%
- pest or weed control at 125 g/ha ([8]; Lolium multiflorum, post-emergence, 240 h, 125 g ai/ha, read-out: Plant response rating, Ryegrass, Italian): 60%
- pest or weed control at 31 g/ha ([9]; Setaria faberi, post-emergence, 240 h, 31 g ai/ha, read-out: Plant response rating, Foxtail, Giant): 30%
- pest or weed control at 125 g/ha ([9]; Setaria faberi, post-emergence, 240 h, 125 g ai/ha, read-out: Plant response rating, Foxtail, Giant): 90%
- pest or weed control at 31 g/ha ([10]; Galium, post-emergence, 240 h, 31 g ai/ha, read-out: Plant response rating, Galium): 60%
- pest or weed control at 125 g/ha ([10]; Galium, post-emergence, 240 h, 125 g ai/ha, read-out: Plant response rating, Galium): 80%
- pest or weed control at 31 g/ha ([11]; Echinochloa crus-galli, post-emergence, 240 h, 31 g ai/ha, read-out: Plant response rating, Barnyardgrass): 40%
- pest or weed control at 125 g/ha ([11]; Echinochloa crus-galli, post-emergence, 240 h, 125 g ai/ha, read-out: Plant response rating, Barnyardgrass): 80%
- plant injury at 31 g/ha ([12]; Triticum aestivum, post-emergence, 240 h, 31 g ai/ha, read-out: Plant response rating, Wheat): 0%
- plant injury at 125 g/ha ([12]; Triticum aestivum, post-emergence, 240 h, 125 g ai/ha, read-out: Plant response rating, Wheat): 20%
- pest or weed control at 31 g/ha ([13]; Alopecurus myosuroides, post-emergence, 240 h, 31 g ai/ha, read-out: Plant response rating, Blackgrass): 40%
- pest or weed control at 125 g/ha ([13]; Alopecurus myosuroides, post-emergence, 240 h, 125 g ai/ha, read-out: Plant response rating, Blackgrass): 80%
- Corn plant response rating (crop injury, 0 = no effect, 100 = complete kill) at 31 g/ha (corn (Zea mays); Zea mays, post-emergence, 240 h, 31 g ai/ha): 10%
- Corn plant response rating (crop injury, 0 = no effect, 100 = complete kill) at 125 g/ha (corn (Zea mays); Zea mays, post-emergence, 240 h, 125 g ai/ha): 50%
- pest or weed control at 31 g/ha ([14]; Ambrosia artemisiifolia, post-emergence, 240 h, 31 g ai/ha, read-out: Plant response rating, Ragweed): 30%
- pest or weed control at 125 g/ha ([14]; Ambrosia artemisiifolia, post-emergence, 240 h, 125 g ai/ha, read-out: Plant response rating, Ragweed): 50%
- pest or weed control at 31 g/ha ([15]; Amaranthus retroflexus, post-emergence, 240 h, 31 g ai/ha, read-out: Plant response rating, Pigweed): 100%
- pest or weed control at 125 g/ha ([15]; Amaranthus retroflexus, post-emergence, 240 h, 125 g ai/ha, read-out: Plant response rating, Pigweed): 100%
- pest or weed control at 250 g/ha ([16]; Cyperus difformis, 336 h, read-out: Plant response rating, Sedge, Umbrella): 40%
- pest or weed control at 250 g/ha ([17]; Echinochloa crus-galli, 336 h, read-out: Plant response rating, Barnyardgrass): 0%
- pest or weed control at 250 g/ha ([18]; Heteranthera limosa, 336 h, read-out: Plant response rating, Ducksalad): 30%
- plant injury at 250 g/ha (rice (Oryza sativa); Oryza sativa, 336 h, read-out: Plant response rating, Rice): 0%
